Reference: patent US20250084063A1 (Incyte Corporation, priority 2023, published 2025)

What was measured:
[1] = biological target: T1, MRGPRX2 (Homo sapiens, UniProt Q96LB1); experiment: MRGPRX2 FLIPR calcium mobilization assay; assay type: cell-based; set-up: host or cells: CHO-K1; details: CHO-K1 cells stably expressing human MRGPRX2; Ca2+ release, agonist Cortistatin-14 at EC80
T1 sequence (Q96LB1 1-330): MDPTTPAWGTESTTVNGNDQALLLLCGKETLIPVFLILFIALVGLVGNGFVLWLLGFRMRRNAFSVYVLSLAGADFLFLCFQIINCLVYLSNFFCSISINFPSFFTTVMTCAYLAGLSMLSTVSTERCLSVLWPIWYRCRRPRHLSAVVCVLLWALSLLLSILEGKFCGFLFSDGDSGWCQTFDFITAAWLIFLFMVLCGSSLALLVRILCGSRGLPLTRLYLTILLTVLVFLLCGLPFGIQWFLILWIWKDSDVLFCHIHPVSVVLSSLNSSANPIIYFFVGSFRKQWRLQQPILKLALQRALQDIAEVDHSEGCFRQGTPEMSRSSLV
Experimental: Example A. MRGPRX2 FLIPR Calcium Mobilization Assay
Chinese hamster ovary (CHO-K1) cells stably expressing human MRGPRX2 were purchased from Genescript (Piscataway, NJ). The cells were maintained in culture medium (Ham's F-12K) containing 10% (v/v) FBS, 200 μg/mL Zeocin, 100 units/mL penicillin G and 100 μg/mL streptomycin (Life Technologies, Carlsbad, CA). For the assay, the cells were harvested and resuspended with culture medium without Zeocin before plating at 8000 cells per well in 20 μL in 384-well black clear bottom cell culture plates (VWR, Radnor, PA). After 24 h culture at 37° C. and 5% CO2, the cells were loaded with 20 μL/well of calcium dye (FLIPR Calcium 6 Assay Kit, Molecular Devices, San Jose, CA) diluted in loading buffer (1×Hank's Balanced Salt Solution (HBSS), 5 mM probenecid, 20 mM 4-(2-hydroxyethyl)-1-piperazineethanesulfonic acid (HEPES), pH 7.4, VWR, Radnor, PA) followed with 45 min incubation at 37° C. and 40 min at room temperature in the dark. Cells were then treated with the addition of 10 uL/well test compounds with a range of increasing concentrations diluted in the assay buffer (1×HBSS, 20 mM HEPES, pH 7.4, VWR, Radnor, PA) with FLIPR Penta (Molecular Devices. San Jose, CA) and incubated for 30 min. at room temperature. Ca^2+ release was measured with FLIPR Penta with 10 seconds basal fluorescence measurement, then 12.5 μL of 5× agonist Cortistatin-14 (Tocris, Minneapolis, MN) at final concentration corresponding to the EC80 were added followed with continued fluorescence signal monitoring for an additional 110 seconds. The base line adjusted (median of first 10s base line) max value of the Relative Fluorescence Unit (RFU) was plotted against compound concentrations. Wells with no compound were served as the positive controls, and wells with high concentration of reference antagonist were used as negative controls. IC50 curves were globally fitted with 3- or 4-parameter Hill equation in a Genedata Screener (Genedata Basel, Switzerland).

[2] = biological target: T1, MRGPRX2; experiment: MRGPRX2 IP1 HTRF assay; assay type: cell-based; set-up: host or cells: CHO-K1; details: CHO-K1 cells stably expressing human MRGPRX2; IP1 accumulation, agonist Cortistatin 14 1 μM
Excerpt: Example B: MRGPRX2 IP1 HTRF Assay
This assay measures compound inhibition of myo-Inositol 1 phosphate (IP1) accumulation in CHO-K1 cells. Chinese hamster ovary (CHO-K1) cells stably expressing human MRGPRX2 were purchased from GenScript (Piscataway, NJ).
For the HTRF IP1 determination, an IP-One GqKit (Perkin Elmer Cisbio, Waltham, MA), which includes all reagents and buffers in this protocol, was used. The cells were maintained in culture medium (Ham's F-12K) containing 10% (v/v) FBS, and 200 μg/mL Zeocin. For the assay, the cells were harvested and resuspended in culture medium with 2% FBS and without Zeocin, then were passed through a 40 μm filter. Cells were added at 20000 cells in a 5 μL/well to a 384-well white small volume cell culture plate (Greiner VWR, Radnor, PA) which contained 50 nL/well of test compound serially diluted at a selected concentration range in DMSO. 5 μL/well of prepared 2× Stimulation Buffer2 was then added to plates and was incubated at 37° C. with 5% CO2 for 1 h. 5 μL/well of agonist Cortistatin 14 (Bio-TechneR&D Systems, Minneapolis, MN) in 1× Stimulation Buffer 2, for a 1 μM final concentration, was then added to plates and incubated at 37° C. with 5% CO2 for 1 h. 6 μL/well of 1:20 diluted Detection Reagent Mix (d2 and Cryptate) was added to the plates and incubated for 1 h in the dark. Plates were read on the PHERAstar microplate reader (BMG Labtech Cary, NC) to determine the HTRF ratio of the acceptor and donor emission signals. The IP1 concentrations were calculated from a standard curve following the IP-One GQ kit instructions. Wells with DMSO only and wells with high concentration of reference antagonist were used as controls for normalization. Compound IC50 curves were globally fitted with 3- or 4-parameter Hill equation in a Genedata Screener (Genedata Basel, Switzerland).

Row | Structure (SMILES) | IC50 [1] [nM] | IC50 [2] [nM]
1 | Cc1ccc2c(NCC3(c4ccc(F)cn4)CN(C(N)=O)C3)cc(C(F)(F)F)nc2c1 [Example 61, 3-(5-Fluoropyridin-2-yl)-3-(((7-methyl-2-(trifluoromethyl)quinolin-4-yl)amino)methyl)azetidine-1-carboxamide] | > 1000 | > 1000
2 | NC(=O)N1CC(CNc2cc(C(F)(F)F)nc3ccc(Cl)cc23)(c2ccnc(Cl)c2)C1 [Example 42, 3-(((6-Chloro-2-(trifluoromethyl)quinolin-4-yl)amino)methyl)-3-(2-chloropyridin-4-yl)azetidine-1-carboxamide] | 0.1 to 100 | 0.1 to 100
3 | Fc1ccc(C2(CNc3cc(C(F)(F)F)nc4ccc(Cl)cc34)COC2)cc1 [Example 50, 6-Chloro-N-((3-(4-fluorophenyl)oxetan-3-yl)methyl)-2-(trifluoromethyl)quinolin-4-amine] | 0.1 to 100 | 0.1 to 100
4 | NS(=O)(=O)N1CC(CNc2cc(C(F)(F)F)nc3ccc(Cl)cc23)(c2ccnc(Cl)c2)C1 [Example 35, 3-(((6-Chloro-2-(trifluoromethyl)quinolin-4-yl)amino)methyl)-3-(2-chloropyridin-4-yl)azetidine-1-sulfonamide] | 0.1 to 100 | 0.1 to 100
5 | NS(=O)(=O)N1CC(CNc2cc(C(F)(F)F)nc3ccc(Cl)cc23)(c2ccc(F)c(F)c2)C1 [Example 34, 3-(((6-Chloro-2-(trifluoromethyl)quinolin-4-yl)amino)methyl)-3-(3,4-difluorophenyl)azetidine-1-sulfonamide] | 0.1 to 100 | 0.1 to 100
6 | CNC1CCC(CNc2cc(C(F)(F)F)nc3ccc(Cl)cc23)(c2ccccc2)C1 (stereo not drawn) [Example 55, 6-Chloro-N-((3-(methylamino)-1-phenylcyclopentyl)methyl)-2 (trifluoromethyl)quinolin-4-amine] | 0.1 to 100 | 0.1 to 100
7 | CNC(=O)N1CC(CNc2cc(C(F)(F)F)nc3ccc(Cl)cc23)(c2ccccc2)C1 [Example 48, 3-(((6-Chloro-2-(trifluoromethyl)quinolin-4-yl)amino)methyl)-N-methyl-3-phenylazetidine-1-carboxamide] | 0.1 to 100 | 0.1 to 100
8 | NS(=O)(=O)N1CC(CNc2cc(C(F)(F)F)nc3ccc(Cl)cc23)(n2cc(Cl)cn2)C1 [Example 36, 3-(4-Chloro-1H-pyrazol-1-yl)-3-(((6-chloro-2-(trifluoromethyl)quinolin-4-yl)amino)methyl)azetidine-1-sulfonamide] | 0.1 to 100 | 0.1 to 100
9 | NC(=O)N1CC(CNc2cc(C(F)(F)F)nc3ccc(Cl)cc23)(c2ccc(F)cc2)C1 [Example 39, 3-(((6-Chloro-2-(trifluoromethyl)quinolin-4-yl)amino)methyl)-3-(4-fluorophenyl)azetidine-1-carboxamide] | 0.1 to 100 | 0.1 to 100
10 | CNC(=O)N1CC(CNc2cc(C(F)(F)F)nc3ccc(Cl)cc23)(c2ccc(F)cn2)C1 [Example 51, 3-(((6-Chloro-2-(trifluoromethyl)quinolin-4-yl)amino)methyl)-3-(5-fluoropyridin-2-yl)-N-methylazetidine-1-carboxamide] | 0.1 to 100 | 0.1 to 100
11 | NC(=O)N1CCC(CNc2cc(C(F)(F)F)nc3ccc(Cl)cc23)(c2ccccc2)CC1 [Example 13, 4-(((6-Chloro-2-(trifluoromethyl)quinolin-4-yl)amino)methyl)-4-phenylpiperidine-1-carboxamide] | 0.1 to 100 | 0.1 to 100
12 | NC(=O)N1CC(CNc2cc(C(F)(F)F)nc3cccc(F)c23)(c2ccc(F)cn2)C1 [Example 60, 3-(((5-Fluoro-2-(trifluoromethyl)quinolin-4-yl)amino)methyl)-3-(5-fluoropyridin-2-yl)azetidine-1-carboxamide] | 100 to 1000 | > 1000
13 | CN1CCC(CNc2cc(C(F)(F)F)nc3ccc(Cl)cc23)(c2ccccc2)CC1 [Example 15, 6-Chloro-N-((1-methyl-4-phenylpiperidin-4-yl)methyl)-2-(trifluoromethyl)quinolin-4-amine] | 0.1 to 100 | 0.1 to 100
14 | NC(=O)N1CC(CNc2cc(C(F)(F)F)nc3cc(Cl)ccc23)(c2ccc(F)cn2)C1 [Example 57, 3-(((7-Chloro-2-(trifluoromethyl)quinolin-4-yl)amino)methyl)-3-(5-fluoropyridin-2-yl)azetidine-1-carboxamide] | 0.1 to 100 | 

Other lines, results leading:

Row | IC50 [1] [nM] | IC50 [2] [nM] | Structure (SMILES)
15 | 0.1 to 100 | 100 to 1000 | COc1cnn(C2(CNc3cc(C(F)(F)F)nc4ccc(Cl)cc34)CN(C(N)=O)C2)c1 [Example 102, 3-(((6-Chloro-2-(trifluoromethyl)quinolin-4-yl)amino)methyl)-3-(4-methoxy-1H-pyrazol-1-yl)azetidine-1-carboxamide]
16 | 0.1 to 100 | 0.1 to 100 | N#Cc1cnn(C2(CNc3cc(C(F)(F)F)nc4ccc(Cl)cc34)CN(C(N)=O)C2)c1 [Example 101, 3-(((6-Chloro-2-(trifluoromethyl)quinolin-4-yl)amino)methyl)-3-(4-cyano-1H-pyrazol-1-yl)azetidine-1-carboxamide]
17 | > 1000 | > 1000 | Cc1cccc2nc(C(F)(F)F)cc(NCC3(c4ccc(F)cn4)CN(C(N)=O)C3)c12 [Example 62, 3-(5-Fluoropyridin-2-yl)-3-(((5-methyl-2-(trifluoromethyl)quinolin-4-yl)amino)methyl)azetidine-1-carboxamide]
18 |  | 100 to 1000 | Cc1cc(C)n(C2(CNc3cc(C(F)(F)F)nc4ccc(Cl)cc34)CN(C(N)=O)C2)n1 [Example 105, 3-(((6-Chloro-2-(trifluoromethyl)quinolin-4-yl)amino)methyl)-3-(3,5-dimethyl-1H-pyrazol-1-yl)azetidine-1-carboxamide]
19 | 0.1 to 100 | 0.1 to 100 | NS(=O)(=O)N1CCC(CNc2cc(C(F)(F)F)nc3ccc(Cl)cc23)(c2ccc(F)cn2)CC1 [Example 100, 4-(((6-Chloro-2-(trifluoromethyl)quinolin-4-yl)amino)methyl)-4-(5-fluoropyridin-2-yl) piperidine-1-sulfonamide]
20 | > 1000 |  | N#Cc1cccc2c(NCC3(c4ccc(F)cn4)CN(C(N)=O)C3)cc(C(F)(F)F)nc12 [Example 64, 3-(((8-Cyano-2-(trifluoromethyl)quinolin-4-yl)amino)methyl)-3-(5-fluoropyridin-2-yl)azetidine-1-carboxamide]
21 | 100 to 1000 | > 1000 | NC(=O)N1CC(CNc2cc(C(F)(F)F)nc3cc(C(F)(F)F)ccc23)(c2ccc(F)cn2)C1 [Example 63, 3-(((2,7-Bis(trifluoromethyl)quinolin-4-yl)amino)methyl)-3-(5-fluoropyridin-2-yl)azetidine-1-carboxamide]
